The values below come from ChEMBL document CHEMBL5143733, “Discovery of (E)-3-(3-((2-Cyano-4'-dimethylaminobiphenyl-4-ylmethyl)cyclohexanecarbonylamino)-5-fluorophenyl)acrylic Acid Methyl Ester, an Intestine-Specific, FXR Partial Agonist for the Treatment of Nonalcoholic Steatohepatitis” (J Med Chem, 2022).

Usually EC50 stands for the midpoint of the concentration-response curve. A lower EC50 goes with an effect from little substance. One may read the half-life as how long it takes for the measured level to halve. The low end stands for rapid decline, the high end for slow decline. The term Emax denotes the greatest response seen or fitted, relative to the assay's reference. One may read the clearance as a measure of how efficiently the substance is removed, as volume per time. The low end stands for inefficient removal, the high end for efficient removal.

For data set [1], the target named is Peroxisome proliferator-activated receptor delta (Homo sapiens, UniProt Q03181). Description: Agonist activity at human PPAR-delta expressed in CHO-K1 cells by PathHunter assay. In kind it is cell-based.
Data set [2] in a line: AUClast in Sprague-Dawley rat at 5 mg/kg, iv measured up to 24 hrs by HPLC analysis. On the set-up: time < 24 hrs, dose 5 mg/kg, route iv. As to conditions: in vivo, 24 h. In kind it is ADME, organism-based.
Data set [3] is described as follows: Volume of distribution at steady state in Sprague-Dawley rat at 5 mg/kg, iv measured up to 24 hrs by HPLC analysis. In kind it is ADME, organism-based. To be noted: in vivo, read-out: Vdss.
The nature of data set [4]: Half life in Sprague-Dawley rat at 5 mg/kg, iv measured up to 24 hrs by HPLC analysis. Type of data set: ADME, organism-based. To be noted: in vivo.
Data set [5] concerns the target T1, Bile acid receptor (Mus musculus) (UniProt Q60641).
T1 sequence (whole entry): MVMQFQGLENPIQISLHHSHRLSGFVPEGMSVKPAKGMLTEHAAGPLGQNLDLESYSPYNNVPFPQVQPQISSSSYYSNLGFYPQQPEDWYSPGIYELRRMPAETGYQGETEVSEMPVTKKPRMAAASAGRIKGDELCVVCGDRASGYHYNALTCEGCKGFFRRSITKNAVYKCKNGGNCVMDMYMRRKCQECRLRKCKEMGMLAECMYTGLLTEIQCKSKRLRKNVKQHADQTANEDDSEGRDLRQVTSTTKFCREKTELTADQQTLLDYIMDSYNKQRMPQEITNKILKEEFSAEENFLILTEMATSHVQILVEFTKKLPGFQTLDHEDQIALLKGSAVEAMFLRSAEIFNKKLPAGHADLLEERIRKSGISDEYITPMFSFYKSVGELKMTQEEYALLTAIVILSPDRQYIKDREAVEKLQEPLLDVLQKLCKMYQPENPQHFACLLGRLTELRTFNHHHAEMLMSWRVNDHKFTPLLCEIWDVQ
Description: In vivo activation of FXR in CDAHFD-induced nonalcoholic steatohepatitis C57BL/6J mouse model assessed as induction of OST-alpha gene expression at 80 mg/kg, po administered daily for 4 weeks. Type of data set: functional, organism-based.

Data set [6] can be described thus: Toxicity in CDAHFD-induced nonalcoholic steatohepatitis C57BL/6J mouse model assessed as reduction in serum AST level at 80 mg/kg, po administered daily for 4 weeks. Type of data set: organism-based. To be noted: in vivo, 672 h.
Data set [7] has as its system Mus musculus. Nature of the data set: Antifibrotic activity in CDAHFD-induced nonalcoholic steatohepatitis C57BL/6J mouse model assessed as reduction in TIMP-1 gene expression at 80 mg/kg, po administered daily for 4 weeks. In kind it is functional, organism-based.
Data set [8] in a line: Toxicity in CDAHFD-induced nonalcoholic steatohepatitis C57BL/6J mouse model assessed as change in body weight at 80 mg/kg, po administered daily for 4 weeks. In kind it is organism-based. To be noted: in vivo, 672 h.
Data set [9] has as its system Mus musculus. Description: Antifibrotic activity in CDAHFD-induced nonalcoholic steatohepatitis C57BL/6J mouse model assessed as reduction in COL1A1 gene expression at 80 mg/kg, po administered daily for 4 weeks. Type of data set: functional, organism-based.
The target in data set [10] is T1, Bile acid receptor (Mus musculus). Nature of the data set: In vivo activation of FXR in CDAHFD-induced nonalcoholic steatohepatitis C57BL/6J mouse model assessed as induction of FGF15 gene expression at 80 mg/kg, po administered daily for 4 weeks. Type of data set: functional, organism-based.
Data set [11] has the same target. Nature of the data set: In vivo activation of FXR in CDAHFD-induced nonalcoholic steatohepatitis C57BL/6J mouse model assessed as induction of SHP gene expression at 80 mg/kg, po administered daily for 4 weeks. Type of data set: functional, organism-based.
The nature of data set [12]: Drug metabolism in Sprague-Dawley rat plasma assessed as retention time of unidentified major metabolite at 5 mg/kg, iv upto 1 hr by RP-HPLC analysis. In kind it is ADME, organism-based. To be noted: in vivo.
Data set [13] deals with T1, Bile acid receptor (Mus musculus). Nature of the data set: In vivo activation of FXR in CDAHFD-induced nonalcoholic steatohepatitis C57BL/6J mouse model assessed as induction of IBABP gene expression at 80 mg/kg, po administered daily for 4 weeks. Type of data set: functional, organism-based.
Data set [14] is described as follows: Toxicity in CDAHFD-induced nonalcoholic steatohepatitis C57BL/6J mouse model assessed as increase in liver wet weight at 80 mg/kg, po administered daily for 4 weeks […]. In kind it is organism-based. To be noted: in vivo, 672 h.
The nature of data set [15]: Stability in Sprague-Dawley rat plasma at 80 mg/kg, po measured after 5 hrs by RP-HPLC analysis. Type of data set: ADME, organism-based. As to conditions: in vivo.
The nature of data set [16]: AUClast in Sprague-Dawley rat at 80 mg/kg, po measured up to 24 hrs by HPLC analysis. Type of data set: ADME, organism-based. Further details: dose 80 mg/kg, time < 24 hrs, route po. To be noted: in vivo.
The nature of data set [17]: Oral bioavailability in Sprague-Dawley rat at 80 mg/kg measured up to 24 hrs by HPLC analysis. Type of data set: ADME, organism-based. To be noted: in vivo.
The target of data set [18] is T2, Bile acid receptor (Homo sapiens) (UniProt Q96RI1).
T2 sequence (whole entry): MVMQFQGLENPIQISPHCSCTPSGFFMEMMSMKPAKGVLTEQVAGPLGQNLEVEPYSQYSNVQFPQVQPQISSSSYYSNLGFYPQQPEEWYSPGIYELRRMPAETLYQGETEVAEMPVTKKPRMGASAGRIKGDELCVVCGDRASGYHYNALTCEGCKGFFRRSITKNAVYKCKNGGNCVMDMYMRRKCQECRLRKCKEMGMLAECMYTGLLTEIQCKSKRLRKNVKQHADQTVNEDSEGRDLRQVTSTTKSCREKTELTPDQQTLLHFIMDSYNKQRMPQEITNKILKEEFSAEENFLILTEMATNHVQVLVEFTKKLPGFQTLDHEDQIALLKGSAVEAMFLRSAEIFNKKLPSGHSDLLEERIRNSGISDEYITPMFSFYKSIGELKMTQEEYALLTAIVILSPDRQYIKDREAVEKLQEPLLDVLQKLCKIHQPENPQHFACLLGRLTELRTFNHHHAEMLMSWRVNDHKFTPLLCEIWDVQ
Description: Partial agonist activity at FXR (unknown origin) expressed in CHO-K1 cells coexpressed with beta-galactosidase incubated for 3 to 16 hrs by PathHunter chemiluminescence based assay relative to GW4064. In kind it is cell-based. As to conditions: filed as partial agonist, time 3-16 hrs.

Data set [19] relates to Mus musculus. Description: Antiinflammatory activity in CDAHFD-induced nonalcoholic steatohepatitis C57BL/6J mouse model assessed as reduction in IL-1beta gene expression at 80 mg/kg, po administered daily for 4 weeks. In kind it is functional, organism-based.
Data set [20] can be described thus: Toxicity in CDAHFD-induced nonalcoholic steatohepatitis C57BL/6J mouse model assessed as change in amount of food intake at 80 mg/kg, po administered daily for 4 weeks. Type of data set: organism-based. As to conditions: in vivo, 672 h.
Data set [21] in a line: Drug metabolism in Sprague-Dawley rat plasma assessed as (E)-3-(3-((2-Cyano-4'-dimethylaminobiphenyl-4-ylmethyl)-cyclohexanecarbonylamino)-5-fluorophenyl)acrylic Acid metabolite formation at 5 mg/kg, iv measured up to 20 to 60 mins by RP-HPLC analysis. To be noted: in vivo, time 20-60 min. In kind it is ADME, organism-based.
Data set [22] has as its target T1, Bile acid receptor (Mus musculus). Description: In vivo activation of FXR in CDAHFD-induced nonalcoholic steatohepatitis C57BL/6J mouse model assessed as reduction in liver fibrosis at 80 mg/kg, po administered daily for 4 weeks by picrosirius red staining method. Type of data set: functional, organism-based.
For data set [23] the target is unchanged. Description: In vivo activation of FXR in […]-induced nonalcoholic steatohepatitis C57BL/6J mouse model assessed as improved glucose tolerance measured up to 120 mins by glucose tolerance test. Type of data set: functional.
Data set [24] can be described thus: Clearance in Sprague-Dawley rat at 5 mg/kg, iv measured up to 24 hrs by HPLC analysis. In kind it is ADME, organism-based. To be noted: in vivo.

The structures appear in SMILES notation. The source made the active and inactive calls. No cut-off for these calls is given here.

Chain of Peroxisome proliferator-activated receptor delta (Q03181 whole entry): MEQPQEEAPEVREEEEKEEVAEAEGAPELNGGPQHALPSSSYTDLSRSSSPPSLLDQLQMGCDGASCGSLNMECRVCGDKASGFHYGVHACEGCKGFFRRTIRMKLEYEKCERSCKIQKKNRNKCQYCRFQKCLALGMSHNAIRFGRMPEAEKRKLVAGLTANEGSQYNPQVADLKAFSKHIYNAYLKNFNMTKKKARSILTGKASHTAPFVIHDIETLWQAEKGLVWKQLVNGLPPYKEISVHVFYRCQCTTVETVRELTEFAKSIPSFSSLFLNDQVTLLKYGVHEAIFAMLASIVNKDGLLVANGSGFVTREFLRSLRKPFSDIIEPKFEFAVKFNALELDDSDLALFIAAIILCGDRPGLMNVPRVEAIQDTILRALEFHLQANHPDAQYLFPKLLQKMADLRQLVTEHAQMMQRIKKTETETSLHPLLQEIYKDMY

With `CCCc1c(OCCCOc2ccc(OCC(=O)O)cc2)ccc(C(C)=O)c1O`, in data set [1], the midpoint of the response, the EC50, lay at 6 nM.

As for `COC(=O)/C=C/c1cc(F)cc(N(Cc2ccc(-c3ccc(N(C)C)cc3)c(C#N)c2)C(=O)C2CCCCC2)c1`, the AUClast in data set [2] came out at 900 ng·h/mL; in data set [16] it was 1500 ng·h/mL. Besides, the Vd in data set [3] was 0.7 L/kg. In addition, the half-life in [4] is 4.8 min. Moreover, the result (in data set [5]; with Mus musculus [7]; in the data set with Mus musculus [9]; in data set [10]; in [11]; in data set [13]) was Active. Also, the outcome (in the data set on Mus musculus [19]; in [22]; in [23]) was Active. Further, the Activity entry in data set [6], in [8], in [14] and in [20] was “Non-Toxic” throughout. For the same compound, the Retention_time in data set [12] is 5.25 min. In addition, the Stability result in data set [15] is reported as “Unstable”. Also, the F in data set [17] was found to be 4%. Moreover, the Emax in data set [18] came to 53%. Moreover, in data set [21], the Drug metabolism entry is “Metabolite_Detected”. Moreover, the clearance in data set [24] was 93.3 mL/min/kg.
